Source: publication PMC5588548, “Suramin Inhibits Osteoarthritic Cartilage Degradation by Increasing Extracellular Levels of Chondroprotective Tissue Inhibitor of Metalloproteinases 3” (Molecular Pharmacology, 2017)
Converted amounts (≈) assume the structure as drawn.

Experiments:
[1] = tested on: porcine cartilage explants; assay: Aggrecan release from porcine cartilage explants (DMMB assay, neo-epitope immunoblotting); format: cell-based
Method: The effects of suramin on cartilage degradation were assessed using porcine or human cartilage explants. Explants were rested for 48 hours after dissection and were washed with serum-free DMEM. […]
Aggrecan degradation was analyzed by quantifying aggrecan fragments released into the conditioned media using the dimethylmethylene blue (DMMB) dye-binding assay ([Farndale et al., 1986]) (mean ± S.D., n = 3) and by immunoblotting with neo-epitope antibodies that recognize ADAMTS-cleaved but not intact aggrecan. For immunoblotting, conditioned media were deglycosylated by adding an equal volume of 200 mM sodium acetate and 50 mM Tris/HCl, pH 6.8, containing chondroitinase and β-endoglycosidase (0.05 U each; 18 hours, 37°C; Sigma-Aldrich). Aggrecan fragments were precipitated by adding five volumes of ice-cold acetone (18 hours, −20°C). After centrifugation (13,000 rpm, 10 minutes, 4°C), pellets were resuspended in SDS sample buffer, separated by electrophoresis on a 6% (v/v) polyacrylamide gel, and blotted onto polyvinylidene fluoride. Membranes were blocked with 5% (m/v) BSA in Tris-buffered saline and incubated with either a rabbit antibody that recognizes the AGEG neo-epitope generated by ADAMTS cleavage of the TAQE^1771∼^1772AGEG bond of aggrecan ([Troeberg et al., 2008]) or a mouse antibody that recognizes the ARGSV neo-epitope generated by ADAMTS cleavage of the NITEGE^373∼^374ARGSV bond ([Hughes et al., 1995]).

[2] = parameters: method as in Voogd et al., 1993; conditions: ref Voogd et al., 1993; cited from earlier work
[3] = tested on: LRP1 mRNA; assay: LRP1 mRNA analysis in HTB94 cells (quantitative PCR); format: cell-based; conditions: 18 hours
Method: (§1) HTB94 chondrosarcoma cells or primary human chondrocytes (1 × 10^6 cells) were treated in triplicate with 0–250 µg/ml suramin in serum-free DMEM for 18–48 hours. Total RNA was isolated from cells using an RNeasy mini kit (Qiagen, Crawley, UK) and cDNA was synthesized (reverse transcriptase kit; Applied Biosystems, Foster City, CA). Levels of TIMP-1, TIMP-2, TIMP-3, LRP1, and RPLP0 internal reference mRNA were quantified by real-time polymerase […] chain reaction on a Corbett Rotor-Gene 6000 (Corbett Life Science, Mortlake, NSW, Australia) using TaqMan Fast Universal PCR Master Mix (Applied Biosystems) and TaqMan probes (Applied Biosystems) Hs01092512_g1 for TIMP-1, Hs00234278_m1 for TIMP-2, Hs00165949_m1 for TIMP-3, Hs00233856_m1 for LRP1, and Hs99999902_m1 for RPLP0. The ΔΔ threshold cycle values (mean ± S.D., n = 3 technical replicates) are shown relative to control untreated HTB94 cells (defined as 1).

[4] = tested on: HTB94 chondrosarcoma cells; assay: Accumulation of endogenous TIMP-3 in medium of HTB94 cells; format: cell-based; conditions: suramin 50–200 µg/ml, 30 hours
Method: Cells (HTB94 chondrosarcoma cells, primary porcine chondrocytes, or human osteoarthritic chondrocytes) were plated overnight (6 × 10^5 cells per well of a 12-well plate) in DMEM containing 10% FCS and washed three times in serum-free DMEM.
Media were harvested, precipitated with trichloroacetic acid, and analyzed by immunoblotting using a rabbit anti–TIMP-3 polyclonal antibody (AB6000; Millipore, Hertfordshire, UK) and an alkaline phosphatase–conjugated anti-rabbit secondary antibody (Promega). […]

[5] = tested on: TIMP-2 mRNA; assay: TIMP-2 mRNA analysis in HTB94 cells (quantitative PCR); format: cell-based; conditions: suramin 0–250 µg/ml, 18 hours
Method: as §1

[6] = tested on: TIMP-3 mRNA; assay: TIMP-3 mRNA analysis in HTB94 cells (quantitative PCR); format: cell-based; conditions: suramin 0–250 µg/ml, 18 hours
Method: as §1

[7] = tested on: HTB94 chondrosarcoma cells; assay: Cell viability assay (MTS), HTB94 cells; format: cell-based; conditions: suramin 0–250 µg/ml, 72 hours
Method: HTB94 chondrosarcoma cells or human OA chondrocytes (10^3 cells per well in 96-well plates) were plated overnight in DMEM with 10% FCS. Cells were washed in serum-free cartilage medium and treated for 48–72 hours with suramin (0–250 µg/ml) or sodium nitroprusside (10 mM) as a control to induce cell death. Cell viability was then assessed using the 3-(4,5-dimethylthiazol-2-yl)-5-(3-carboxymethoxyphenyl)-2-(4-sulfophenyl)-2H-tetrazolium CellTiter Cell Proliferation Assay (Promega) according to the manufacturer’s instructions (mean ± S.D., n = 3).

[8] = tested on: rat inflammatory arthritis model; parameters: method as in Sahu et al., 2012; conditions: ref Sahu et al., 2012; cited from earlier work

## Cc1ccc(C(=O)Nc2ccc(S(=O)(=O)O)c3cc(S(=O)(=O)O)cc(S(=O)(=O)O)c23)cc1NC(=O)c1cccc(NC(=O)Nc2cccc(C(=O)Nc3cc(C(=O)Nc4ccc(S(=O)(=O)O)c5cc(S(=O)(=O)O)cc(S(=O)(=O)O)c45)ccc3C)c2)c1 [suramin]
[1]; Sus scrofa, 48 h, porcine cartilage explants, retinoic acid 1 µM, 48 hours, DMMB assay, read-out: IC50 for inhibition of aggrecan release
  IC50: 98 ± 9 µg/mL (≈ 75.5 µM)
[1]; porcine cartilage explants stimulated with IL-1 10 ng/ml or retinoic acid 1 µM, 48 hours, DMMB assay
  aggrecan release: effectively inhibited
[1]; porcine cartilage explants, retinoic acid 1 µM, 48 hours
  aggrecan degradation at ADAMTS-susceptible NITEGE373∼374ARGSV and TAQE1771∼1772AGEG sites (neo-epitope immunoblotting): inhibited
[1]; porcine cartilage, retinoic acid 1 µM, 30 hours, with anti–TIMP-3 antibody MAB973 50 µg/ml
  aggrecan degradation: unable to inhibit
[1]; porcine cartilage, retinoic acid 1 µM, 30 hours, with isotype control antibody 50 µg/ml
  aggrecan release: significantly inhibited
[2]
  oral bioavailability: not orally bioavailable
[3]; suramin 250 µg/ml
  increase in expression of LRP1 mRNA: 3 fold
[3]; suramin up to 200 µg/ml
  expression of LRP1 mRNA: unaffected
[4]
  endogenous TIMP-3 in the medium: accumulated
[5]
  TIMP-2 mRNA levels: no effect
[6]
  TIMP-3 mRNA levels: not associated with any significant change
[7]
  cell viability (MTS): no effect
[8]
  cartilage damage: ameliorate cartilage damage
